One series has as its target IMP-1 (Serratia marcescens, UniProt P52699). Kind of series: biochemical. The class given is biochemical. The note with it: fluorescence assay, CCF2-FA substrate, 2 pM enzyme, 2 hours at 25° C.; read-out: IMP-1 IC50. The method in brief:
(§1)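 Two-hour, 25° C incubation of enzyme with inhibitor and CCF2-FA (7-hydroxycoumarin–cephalosporin–fluorescein). Fluorescence read-out; IC50 via 4-parameter fit.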

The next series deals with NDM-1 (Klebsiella pneumoniae, UniProt C7C422). Kind of series: biochemical. The class given is biochemical. The conditions noted are these: fluorescence assay, CCF2-FA substrate, 1 pM enzyme, 2 hours at 25° C.; read-out: NDM-1 IC50. The method in brief:
as §1

A further series concerns the target VIM-1 (Pseudomonas aeruginosa (strain ATCC 15692 / DSM 22644 / CIP 104116 / JCM 14847 / LMG 12228 / 1C / PRS 101 / PAO1), UniProt A0A0F7KYQ8). Nature of the series: biochemical. The note with it: CCF2-FA substrate, 30 pM enzyme, 2 hours at 25° C. Summed up: as §1
The subject of series [1] is Escherichia coli expressing NDM-1 (CLB30005, CLB30016). The class given is cell-based. The note with it: NDM-1 strain, with imipenem 1 μg/ml, 95% inhibition of growth. The method in brief: (§2)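 Colonies grown overnight on blood agar at 35° C were suspended in saline, diluted 1:100 into 1.1×CAMHB and dispensed. Imipenem was added to 1 μg/ml, then test compound. After 22 hours to 24 hours at 35° C, absorbance was recorded.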

Series [2] has as its system Klebsiella pneumoniae expressing VIM-1 (IHMA599644). The class given is cell-based. The note with it: VIM-1 strain IHMA599644, with imipenem 1 μg/ml, 95% inhibition of growth. The method in brief:
as §2

Series [3] relates to Serratia marcescens expressing IMP-1 (CL5741). The class given is cell-based. The note with it: IMP-1 strain CL5741, with imipenem 1 μg/ml, 95% inhibition of growth. Summed up: as §2
Series [4] deals with Pseudomonas aeruginosa efflux+ (MB9798), IMP-1. The class given is cell-based. The note with it: concentration restoring susceptibility to imipenem at 2 μg/mL in the presence of a class A, C, D serine β-lactamase inhibitor closely related to relebactam. The method in brief: (§3)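 P. aeruginosa PAO1-derived IMP-1 strains, efflux+ MB9798 and efflux− MB9799, tested by standard microbroth MIC with imipenem and/or ceftazidime fixed, usually at CLSI breakpoint, plus fixed class A/C β-lactamase inhibitor against AmpC. Inhibitor titrated; concentration restoring susceptibility recorded; MB9798/MB9799 fold difference indicates efflux.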

Series [5] deals with Pseudomonas aeruginosa efflux− (MB9799), IMP-1. The class given is cell-based. The conditions noted are these: concentration restoring susceptibility to imipenem at 2 μg/mL in the presence of a class A, C, D serine β-lactamase inhibitor closely related to relebactam. The method in brief: as §3
Series [6] concerns Pseudomonas aeruginosa MB9798 vs MB9799. The note with it: ratio MITC95 PA_9798/MITC95 PA_9799. The method in brief:
as §3

Where [7] appears, read: fluorescence assay, read-out: VIM-1 IC50.

The structures appear in SMILES notation. Like-named read-outs stand apart in the source and are kept apart here.

Chain of IMP-1 (P52699 whole entry, looked up, species assumed): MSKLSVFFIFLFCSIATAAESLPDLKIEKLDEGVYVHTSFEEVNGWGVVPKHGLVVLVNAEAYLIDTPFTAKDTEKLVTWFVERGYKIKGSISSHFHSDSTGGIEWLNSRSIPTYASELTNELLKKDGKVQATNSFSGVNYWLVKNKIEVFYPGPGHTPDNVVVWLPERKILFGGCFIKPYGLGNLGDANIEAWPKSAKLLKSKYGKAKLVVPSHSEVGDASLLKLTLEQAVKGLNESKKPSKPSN
Chain of NDM-1 (C7C422 whole entry, looked up, species assumed): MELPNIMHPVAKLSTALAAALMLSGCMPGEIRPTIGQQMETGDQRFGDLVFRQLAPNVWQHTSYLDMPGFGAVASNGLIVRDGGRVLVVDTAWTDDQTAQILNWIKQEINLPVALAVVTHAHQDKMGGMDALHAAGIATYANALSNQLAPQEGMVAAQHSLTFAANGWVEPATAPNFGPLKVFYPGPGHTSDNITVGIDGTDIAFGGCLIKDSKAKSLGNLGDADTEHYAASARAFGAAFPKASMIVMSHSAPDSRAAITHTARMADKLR

For the compound `N[C@H]1CNC[C@H]1NS(=O)(=O)c1ccc(-c2cnc3cc[nH]c3c2)c(-c2nn[nH]n2)c1S(N)(=O)=O` [Example 320], the IC50 (usually the point on the concentration scale where inhibition reaches its midpoint) was determined as 1.21 nM at IMP-1; 0.0902 nM on NDM-1; 0.296 nM against VIM-1 (VIM-1 IC50, fluorescence assay). In addition, in series [1], the “Escherichia coli MITC95” value came out at 0.7813 µM. Further, the “Klebsiella pneumoniae MITC95” value in series [2] came out at 3.125 µM. In addition, the “Serratia marcescens MITC95” value in series [3] came to 0.7813 µM. Moreover, the “P. aeruginosa expressing IMP-1, efflux + (MB9798) MITC95” value in series [4] amounted to 1.563 µM. Besides, the “P. aeruginosa expressing IMP-1, efflux − (MB9799) MITC95” value in [5] worked out at 0.7813 µM. Also, in series [6], the Efflux ratio worked out at 2.00.

Turning to `Nc1ncc(-c2ccc(S(=O)(=O)N[C@@H]3CNC[C@@H]3N)c(S(N)(=O)=O)c2-c2nn[nH]n2)s1` [Example 321, N^1-((3R,4S)-4-aminopyrrolidin-3-yl)-4-(2-aminothiazol-5-yl)-3-(2H -tetrazol-5-yl)benzene-1,2-disulfonamide], the concentration for half-maximal inhibition (IC50) at IMP-1 is 1.25 nM; at NDM-1, 0.376 nM; at VIM-1 (VIM-1 IC50, fluorescence assay), 0.958 nM. In series [1], the “Escherichia coli MITC95” value was 0.7813 µM. Moreover, the “Klebsiella pneumoniae MITC95” value in series [2] turned out to be 3.125 µM. Besides, the “Serratia marcescens MITC95” value in series [3] amounted to 1.563 µM. The “P. aeruginosa expressing IMP-1, efflux + (MB9798) MITC95” value in [4] stood at 1.563 µM. For the same compound, in series [5], the “P. aeruginosa expressing IMP-1, efflux − (MB9799) MITC95” value amounted to 0.7813 µM. For the same compound, in [6], the Efflux ratio was determined as 2.00.

`N[C@H](CO)c1nc2c(-c3ccc(S(=O)(=O)N[C@H]4CNC[C@H]4N)c(S(N)(=O)=O)c3-c3nn[nH]n3)cccc2[nH]1` [Example 323, 4-(2-((S)-1-amino-2-hydroxyethyl)-1H-benzo[d]imidazol-4-yl)-N1-((3S,4R)-4-aminopyrrolidin-3-yl)-3-(2H-tetrazol-5-yl)benzene-1,2-disulfonamide]: the IC50 at IMP-1 is 3.39 nM; at NDM-1, 0.219 nM; on VIM-1 (VIM-1 IC50, fluorescence assay) it was 0.321 nM. For the same compound, the “Escherichia coli MITC95” value in series [1] is 1.563 µM. For the same compound, in series [2], the “Klebsiella pneumoniae MITC95” value was 3.125 µM. For the same compound, in series [3], the “Serratia marcescens MITC95” value is 3.125 µM. The “P. aeruginosa expressing IMP-1, efflux + (MB9798) MITC95” value in series [4] was 1.563 µM. For the same compound, the “P. aeruginosa expressing IMP-1, efflux − (MB9799) MITC95” value in series [5] stood at 1.563 µM. For the same compound, in series [6], the Efflux ratio is on record as 1.00.

On to `Nc1ccc2cccc(-c3ccc(S(=O)(=O)N[C@H]4CNC[C@H]4N)c(S(N)(=O)=O)c3-c3nn[nH]n3)c2n1` [Example 324, N1-((3S,4R)-4-aminopyrrolidin-3-yl)-4-(2-aminoquinolin-8-yl)-3-(1H-tetrazol-5-yl)benzene-1,2-disulfonamide], for which the half-inhibitory concentration (IC50) came to 0.213 nM at IMP-1, 0.0387 nM on NDM-1 and 0.13 nM on VIM-1 (setting [7]). The “Escherichia coli MITC95” value in series [1] is 1.563 µM. Besides, the “Klebsiella pneumoniae MITC95” value in [2] is 1.563 µM. Besides, the “Serratia marcescens MITC95” value in [3] came to 0.7813 µM. Further, the “P. aeruginosa expressing IMP-1, efflux + (MB9798) MITC95” value in series [4] stood at 0.7813 µM. Besides, the “P. aeruginosa expressing IMP-1, efflux − (MB9799) MITC95” value in [5] was 0.7813 µM. The Efflux ratio in [6] turned out to be 1.00.

With `Nc1ncc(-c2ccc(S(=O)(=O)N[C@H]3CNC[C@H]3N)c(S(N)(=O)=O)c2-c2nn[nH]n2)s1` [Example 325, N1-((3S,4R)-4-aminopyrrolidin-3-yl)-4-(2-aminothiazol-5-yl)-3-(2H-tetrazol-5-yl)benzene-1,2-disulfonamide], the IC50 at IMP-1 is 1.22 nM; on NDM-1, 0.724 nM; at VIM-1 (VIM-1 IC50, fluorescence assay), 0.896 nM. The “Escherichia coli MITC95” value in series [1] was found to be 0.7813 µM. For the same compound, the “Klebsiella pneumoniae MITC95” value in [2] worked out at 3.125 µM. In series [3], the “Serratia marcescens MITC95” value came out at 1.563 µM. The “P. aeruginosa expressing IMP-1, efflux + (MB9798) MITC95” value in [4] was determined as 1.563 µM. In addition, the “P. aeruginosa expressing IMP-1, efflux − (MB9799) MITC95” value in series [5] amounted to 0.7813 µM. The Efflux ratio in [6] is 2.00.

Turning to `N[C@@H]1CNC[C@@H]1NS(=O)(=O)c1ccc(-c2cnc3cc[nH]c3c2)c(-c2nn[nH]n2)c1S(N)(=O)=O` [Example 326, N1-((3S,4R)-4-aminopyrrolidin-3-yl)-4-(1H-pyrrolo[3,2-b]pyridin-6-yl)-3-(2H-tetrazol-5-yl)benzene-1,2-disulfonamide], the IC50 on IMP-1 came out at 0.65 nM; at NDM-1, 0.0502 nM; at VIM-1 (VIM-1 IC50, fluorescence assay), 0.115 nM. Besides, in series [1], the “Escherichia coli MITC95” value worked out at 0.7813 µM. In addition, the “Klebsiella pneumoniae MITC95” value in [2] was found to be 1.563 µM. Further, the “Serratia marcescens MITC95” value in series [3] stood at 1.563 µM. For the same compound, in series [4], the “P. aeruginosa expressing IMP-1, efflux + (MB9798) MITC95” value was found to be 1.563 µM. In addition, in [5], the “P. aeruginosa expressing IMP-1, efflux − (MB9799) MITC95” value amounted to 1.563 µM. The Efflux ratio in [6] came out at 1.00.

On to `Nc1nc(-c2cccc(-c3ccc(S(=O)(=O)N[C@H]4CNC[C@H]4N)c(S(N)(=O)=O)c3-c3nn[nH]n3)c2)c[nH]1` [Example 327, 3′-(2-amino-1H-imidazol-4-yl)-N4-((3S,4R)-4-aminopyrrolidin-3-yl)-2-(2H-tetrazol-5-yl)-[1,1′-biphenyl]-3,4-disulfonamide], for which the 50% inhibitory concentration (IC50) on IMP-1 was 1.41 nM; at NDM-1 it was 0.259 nM; against VIM-1 (VIM-1 IC50, fluorescence assay), 0.649 nM. For the same compound, in series [1], the “Escherichia coli MITC95” value was 3.125 µM. Besides, the “Klebsiella pneumoniae MITC95” value in [2] was 1.563 µM. Moreover, the “Serratia marcescens MITC95” value in [3] stood at 3.125 µM. For the same compound, the “P. aeruginosa expressing IMP-1, efflux + (MB9798) MITC95” value in [4] is 1.563 µM. Further, the “P. aeruginosa expressing IMP-1, efflux − (MB9799) MITC95” value in series [5] is 0.7813 µM. Moreover, in series [6], the Efflux ratio is reported as 2.00.

In the case of `N[C@@H]1CNC[C@@H]1NS(=O)(=O)c1ccc(-c2cccn3ccnc23)c(-c2nn[nH]n2)c1S(N)(=O)=O` [Example 328, N1-((3S,4R)-4-aminopyrrolidin-3-yl)-4-(imidazo[1,2-a]pyridin-8-yl)-3-(2H-tetrazol-5-yl)benzene-1,2-disulfonamide], the half-inhibitory concentration (IC50) on IMP-1 amounted to 0.34 nM; on NDM-1, 0.14 nM; on VIM-1 (VIM-1 IC50, fluorescence assay) it was 0.165 nM. The “Escherichia coli MITC95” value in [1] was found to be 0.7813 µM. Besides, the “Klebsiella pneumoniae MITC95” value in series [2] was determined as 3.125 µM. In addition, in [3], the “Serratia marcescens MITC95” value amounted to 1.563 µM. Moreover, the “P. aeruginosa expressing IMP-1, efflux + (MB9798) MITC95” value in [4] is 1.563 µM. Also, the “P. aeruginosa expressing IMP-1, efflux − (MB9799) MITC95” value in series [5] is 1.563 µM. The Efflux ratio in [6] is listed as 1.00.

In the case of `Cc1ccc(-c2ccc(S(=O)(=O)NCCN)c(S(N)(=O)=O)c2-c2nn[nH]n2)c2nc(N)[nH]c12` [Example 329, 4-(2-Amino-7-methyl-1H-benzo[d]imidazol-4-yl)-N1-(2-aminoethyl)-3-(2H-tetrazol-5-yl)benzene-1,2-disulfonamide], the IC50 on IMP-1 was 0.128 nM; at NDM-1, 0.0153 nM; on VIM-1 (setting [7]), 0.043 nM. Moreover, the “Escherichia coli MITC95” value in [1] was found to be 1.563 µM. In series [2], the “Klebsiella pneumoniae MITC95” value came to 1.563 µM. The “Serratia marcescens MITC95” value in series [3] amounted to 1.563 µM. For the same compound, the “P. aeruginosa expressing IMP-1, efflux + (MB9798) MITC95” value in series [4] is 1.563 µM. In series [5], the “P. aeruginosa expressing IMP-1, efflux − (MB9799) MITC95” value was 0.7813 µM. Also, in series [6], the Efflux ratio was 2.00.

For `NCCNS(=O)(=O)c1ccc(-c2cccc3[nH]c([C@H](N)CO)nc23)c(-c2nn[nH]n2)c1S(N)(=O)=O` [Example 330, (S)-4-(2-(1-amino-2-hydroxyethyl)-1H-benzo[d]imidazol-4-yl)-N1-(2-aminoethyl)-3-(2H-tetrazol-5-yl)benzene-1,2-disulfonamide], the half-inhibitory concentration (IC50) on IMP-1 is 2.76 nM; at NDM-1, 0.294 nM; against VIM-1 (VIM-1 IC50, fluorescence assay) it was 0.308 nM. The “Escherichia coli MITC95” value in [1] was determined as 3.125 µM. Besides, in series [2], the “Klebsiella pneumoniae MITC95” value is 3.125 µM. In addition, the “Serratia marcescens MITC95” value in [3] was determined as 1.563 µM. In addition, the “P. aeruginosa expressing IMP-1, efflux + (MB9798) MITC95” value in [4] was 1.563 µM. The “P. aeruginosa expressing IMP-1, efflux − (MB9799) MITC95” value in [5] was 1.563 µM. For the same compound, the Efflux ratio in series [6] is recorded as 1.00.

The values above are taken from patent US10221163B2 (priority 2015, dated 2019).
